Type in all cases: cell-based
For one assay, the system named is IL-6 (THP-1 cells). As to the kind of experiment: Inhibition of IL-6 in LPS-stimulated THP-1 human monocyte cells (HTRF). The note with it: inhibition of IL-6 in LPS-stimulated THP-1 cells, HTRF, 10-point dose-response starting from 10 μM. The procedure: Human monocyte cell line (THP-1 cells; Catalog # TIB-202, ATCC, Manassas, Va.) were cultured in Roswell Park Memorial Institute (RPMI) 1640 Medium (Catalog #21870-100, Buffalo, N.Y.) with 1% L-glutamine, 1% HEPES, 1% Sodium Pyruvate, 2% Sodium Bicarbonate supplemented with 100 units/mL penicillin, 50 μg/mL streptomycin, 2-mercaptoethanol (0.05 mM) [basal medium] and 10% fetal bovine serum (Catalog #16140089, Life Technologies, Carlsbad, Calif.) at 37° C. and 5% CO2.
THP-1 cells were cultured in basal media with 1% FBS for 24 hours before the start of the assay. Each compound was dissolved in DMSO as a 10 mM stock and used to prepare compound source plates. Serial dilution (1:3, 10-point dose-response curves starting from 10 μM) and compound transfer was performed using the ECHO 550 (Labcyte, Sunnyvale, Calif.) into 384-well white low volume assay plates (Greiner Bio-One) with appropriate DMSO backfill for a final DMSO concentration of 0.1%. THP-1 cells were plated at 5000 cells/well in the 384-well plates and incubated at 37° C. for 2 h. 500 ng/mL of LPS was added after 2 hours and cells were incubated for another 22 hours at 37° C. Plates were spun in a centrifuge for 1 minute at […] and a mixture of anti-IL6 XL665, and anti-IL6 Cryptate diluted in reconstitution buffer (Cisbio Inc.) was added to each well. Following incubation for 3 hrs at room temperature, Homogeneous Time-Resolved Fluorescence (HTRF) was measured using the Envision (Perkin Elmer) at 665 nm and […]. The ratio of fluorescence at 665 nm to 620 nm was used as a readout for IL6 quantification. All samples were processed in duplicate. Readings were normalized to DMSO treated cells and normalized activities were utilized for EC50 calculations using the dose-response log (inhibitor) vs. response-variable slope (four parameters) nonlinear regression feature available in GraphPad Prism 5.0 (or Dotmatics). For EC50 of >10 μM, the percent inhibition at 10 μM is provided.
In general terms: Time-resolved FRET reads energy transfer from a long-lived donor to a nearby acceptor.

The test system of a further assay is SW480 colon cancer cells. As to the kind of experiment: Cell viability assay (CellTiter-Blue) in SW480 colon cancer cells. The note with it: Homo sapiens, 96 h, four days, CellTiter-Blue. The protocol: Representative compounds were screened using the following assay procedure to assess the effect on cell viability as described below.
Each compound was dissolved in DMSO as a 10 mM stock and used to prepare compound source plates. Serial dilution (1:3, 8-point dose-response curves from 10 μM to 0.0045 μM) and compound transfer was performed using the ECHO 550 (Labcyte, Sunnyvale, Calif.) into 96-well clear bottom, black-walled plates (Corning-Costar).
Approximately 2×10^3 SW480 colon cancer cells were seeded into each well and allowed to incubate in the presence or absence of compound for four days at 37° C./5% CO2. Eight replicates of DMSO-treated cells served as controls and cells treated with compound were performed in duplicate.
After incubation, 20 μL of CellTiter-Blue (Promega) was added to each well allowed to incubate for approximately 3 hours. This reagent was a buffered solution which contains resazurin, metabolically active cells were able to reduce rezarurin (blue) into resorufin (pink) which was highly fluorescent. This measured fluorescence was used as a readout for cell viability.
After incubation, the plates were read at Ex 560 nm Em 590 nm (Cytation 3, BioTek). Dose-response curves were generated and EC50 concentration values were calculated using non-linear regression curve fit in the GraphPad Prism (San Diego, Calif.) or Dotmatics' Studies Software (Bishops Stortford, UK). For EC50 of >10 μM, the percent inhibition at 10 μM is provided.
A general note: Resazurin is reduced to fluorescent resorufin, in cell work by metabolically active cells.

Assay [1] concerns primary human fibroblasts derived from IPF patients (LL29 cells) treated with TGF-β1; α-smooth muscle actin (αSMA). As to the kind of experiment: Inhibition of the fibrotic process: αSMA staining in TGF-β1 treated primary human fibroblasts from IPF patients (LL29 cells). The note with it: Fibroblast, 96 h, TGF-β1 20 ng/mL, 4 days, % cells positive for αSMA. From the text: Representative compounds were screened using primary human fibroblasts (derived from IPF patients) treated with TGF-β1 to determine their ability to inhibit the fibrotic process.
Primary human fibroblasts derived from IPF patients (LL29 cells) [^1Xiaoqiu Liu, et. al., “Fibrotic Lung Fibroblasts Show Blunted Inhibition by cAMP Due to Deficient cAMP Response Element-Binding Protein Phosphorylation”, Journal of Pharmacology and Experimental Therapeutics (2005), 315(2), 678-687; ^2Watts, K. L., et. al., “RhoA signaling modulates cyclin D1 expression in human lung fibroblasts; implications for idiopathic pulmonary fibrosis”, Respiratory Research (2006), 7(1), 88] were obtained from American Type Culture Collection (ATCC) and expanded in F12 medium supplemented with 15% Fetal Bovine Serum and Penicillin/Streptomycin.
Each compound was dissolved in DMSO as a 10 mM stock and used to prepare compound source plates. Serial dilution (1:2, 11-point dose-response curves from 10 μM to 1.87 nM) and compound transfer was performed using the ECHO 550 (Labcyte, Sunnyvale, Calif.) into 384-well clear bottom assay plates (Greiner Bio-One) with appropriate DMSO backfill for a final DMSO concentration of 0.1%. LL29 cells are plated at 1,500 cells/well in 80 μL/well F12 medium supplemented with 1% Fetal Bovine Serum. One hour after addition of the cells, TGF-β1 (Peprotech; 20 ng/mL) was added to the plates to induce fibrosis (ref. 1 and 2 above). Wells treated with TGF-β1 and containing DMSO were used as controls. Cells were incubated at 37° C. and 5% CO2 for 4 days. Following incubation for 4 days, SYTOX green nucleic acid stain (Life Technologies [Thermo Fisher Scientific]) was added to the wells at a final concentration of 1 μM and incubated at room temperature for 30 min. Cells were then fixed using 4% formaldehyde (Electron Microscopy Sciences), washed 3 times with PBS followed by blocking and permeabilization using 3% Bovine Serum Albumin (BSA; Sigma) and 0.3% Triton X-100 (Sigma) in PBS. Cells were then stained with antibody specific to α-smooth muscle actin (αSMA; Abcam) (ref. 1 and 2 above) in 3% Bovine Serum Albumin (BSA; Sigma) and 0.3% Triton X-100 (Sigma) in PBS, and incubated overnight at 4° C. Cells were then washed 3 times with PBS, followed by incubation with Alexa Flor-647 conjugated secondary antibody (Life Technologies [Thermo Fisher Scientific]) and DAPI at room temperature for 1 hour. Cells were then washed 3 times with PBS and plates were sealed for imaging. αSMA staining was imaged by excitation at 630 nm and emission at 665 nm and quantified using the Compartmental Analysis program on the CellInsight CX5 (Thermo Scientific). Dead or apoptotic cells were excluded from analysis based on positive SYTOX green staining. % of total cells positive for αSMA were counted in each well and normalized to the average of 11 wells treated with TGF-β1 on the same plate using Dotmatics' Studies Software. The normalized averages (fold change over untreated) of 3 replicate wells for each compound concentration were used to create dose-responses curves and EC50 values were calculated using non-linear regression curve fit in the Dotmatics' Studies Software. For EC50 of >10 μM, the percent inhibition at 10 μM is provided.

Assay [2] has as its system Wnt activity (Sp5-Luc reporter, TCF/LEF binding sites) in SW480 colon carcinoma cells. As to the kind of experiment: Screening assay for Wnt activity: Sp5-Luc reporter gene assay in stably transduced SW480 cells. The note with it: Homo sapiens, overnight incubation. An excerpt: The screening assay for Wnt activity is described as follows. Reporter cell lines can be generated by stably transducing cancer cell lines (e.g., colon cancer) or primary cells (e.g., IEC-6 intestinal cells) with a lentiviral construct that includes a Wnt-responsive promoter driving expression of the firefly luciferase gene.
SW480 colon carcinoma cells were transduced with a lentiviral vector expressing luciferase with a human Sp5 promoter consisting of a sequence of eight TCF/LEF binding sites. SW480 cells stably expressing the Sp5-Luc reporter gene and a hygromycin resistance gene were selected by treatment with 150 μg/mL of hygromycin for 7 days. These stably transduced SW480 cells were expanded in cell culture and used for all further screening activities. Each compound was dissolved in DMSO as a 10 mM stock and used to prepare compound source plates. Serial dilution (1:3, 10-point dose-response curves starting from 10 μM) and compound transfer was performed using the ECHO 550 (Labcyte, Sunnyvale, Calif.) into 384-well white solid bottom assay plates (Greiner Bio-One) with appropriate DMSO backfill for a final DMSO concentration of 0.1%. For Sp5-Luc reporter gene assays, the cells were plated at 4,000 cells/well in 384-well plates with medium containing 1% fetal bovine serum and incubated overnight at 37° C. and 5% CO2. Following incubation, 20 μl of BrightGlo luminescence reagent (Promega) was added to each well of the 384-well assay plates. The plates were placed on an orbital shaker for 2 min and then luminescence was quantified using the Envision (Perkin Elmer) plate reader. Readings were normalized to DMSO only treated cells, and normalized activities were utilized for EC50 calculations using the dose-response log (inhibitor) vs. response-variable slope (four parameters) nonlinear regression feature available in GraphPad Prism 5.0 (or Dotmatics). For EC50 of >10 μM, the percent inhibition at 10 μM is provided.
Background: In a reporter assay the amount or activity of a reporter protein is the signal.

Among the data in patent publication US10166218B2, “3-(1H-indol-2-yl)-1H-pyrazolo[3,4-C]pyridines and therapeutic uses thereof” (Samumed, LLC, priority 2015, dated 2019) are EC50 values, retold here.

The structures appear in SMILES notation.

Regarding `FC1(F)CCN(Cc2cncc(-c3cc4c(-c5cc6c(-c7cccnc7)cccc6[nH]5)n[nH]c4cn3)c2)C1` [Compound 110, 5-(5-((3,3-Difluoropyrrolidin-1-yl)methyl)pyridin-3-yl)-3-(4-(pyridin-3-yl)-1H-indol-2-yl)-1H-pyrazolo[3,4-c]pyridine], the EC50 – broadly, the concentration that produces a half-maximal response – in the assay with IL-6 (THP-1 cells) came out at 0.422 µM; in the assay on SW480 colon cancer cells it was 1.07 µM; in assay [1], 0.081 µM; in assay [2], 0.137 µM.

As for `CC(C)CC(=O)Nc1cncc(-c2cc3c(-c4cc5c(-c6ccncc6)cccc5[nH]4)n[nH]c3cn2)c1` [Compound 114, 3-Methyl-N-(5-(3-(4-(pyridin-4-yl)-1H-indol-2-yl)-1H-pyrazolo[3,4-c]pyridin-5-yl)pyridin-3-yl)butanamide], the EC50 was 1.08 µM in the assay with IL-6 (THP-1 cells), 6.98 µM in the assay on SW480 colon cancer cells, 0.033 µM in assay [1] and 0.469 µM in assay [2].

As to `CC(C)Nc1cncc(-c2cc3c(-c4cc5c(-c6ccncc6)cccc5[nH]4)n[nH]c3cn2)c1` [Compound 124, N-Isopropyl-5-(3-(4-(pyridin-4-yl)-1H-indol-2-yl)-1H-pyrazolo[3,4-c]pyridin-5-yl)pyridin-3-amine], the EC50 in the assay with IL-6 (THP-1 cells) was 3.35 µM; in the assay on SW480 colon cancer cells, 5.83 µM; in assay [1], 0.138 µM; in assay [2], 0.108 µM.

`c1ccc(-c2cc3c(-c4cc5c(-c6ccncc6)cccc5[nH]4)n[nH]c3cn2)nc1` [Compound 140, 5-(Pyridin-2-yl)-3-(4-(pyridin-4-yl)-1H-indol-2-yl)-1H-pyrazolo[3,4-c]pyridine]: the concentration giving a half-maximal response (EC50) came to 0.481 µM in the assay on IL-6 (THP-1 cells), 0.37 µM in the assay on SW480 colon cancer cells, 0.319 µM in assay [1] and 0.485 µM in assay [2].

As for `O=C(Cc1ccccc1)Nc1cncc(-c2cc3c(-c4cc5c(-c6ccccn6)cccc5[nH]4)n[nH]c3cn2)c1` [Compound 150, 2-Phenyl-N-(5-(3-(4-(pyridin-2-yl)-1H-indol-2-yl)-1H-pyrazolo[3,4-c]pyridin-5-yl)pyridin-3-yl)acetamide], the EC50 in the assay on IL-6 (THP-1 cells) came out at 2.02 µM; with SW480 colon cancer cells, 2.97 µM; in assay [1], 0.531 µM; in assay [2], 1.42 µM.

In the case of `O=C(Nc1cncc(-c2cc3c(-c4cc5c(-c6ccccn6)cccc5[nH]4)n[nH]c3cn2)c1)C1CCCCC1` [Compound 163, N-(5-(3-(4-(Pyridin-2-yl)-1H-indol-2-yl)-1H-pyrazolo[3,4-c]pyridin-5-yl)pyridin-3-yl)cyclohexanecarboxamide], the EC50 with IL-6 (THP-1 cells) stood at 2.49 µM; with SW480 colon cancer cells, 0.938 µM; in assay [1] it was 0.081 µM; in assay [2] it was 0.55 µM.

Take `CC(C)CC(=O)Nc1cncc(-c2cc3c(-c4cc5c(N6CCCCC6)cccc5[nH]4)n[nH]c3cn2)c1` [Compound 170, 3-Methyl-N-(5-(3-(4-(piperidin-1-yl)-1H-indol-2-yl)-1H-pyrazolo[3,4-c]pyridin-5-yl)pyridin-3-yl)butanamide]: the half-maximal effective concentration (EC50) in the assay on IL-6 (THP-1 cells) came to 4.29 µM; in the assay on SW480 colon cancer cells, 4.65 µM; in assay [1], 0.902 µM; in assay [2], 1.33 µM.

For `CCNCc1cncc(-c2cc3c(-c4cc5c(N6CCCCC6)cccc5[nH]4)n[nH]c3cn2)c1` [Compound 174, N-((5-(3-(4-(Piperidin-1-yl)-1H-indol-2-yl)-1H-pyrazolo[3,4-c]pyridin-5-yl)pyridin-3-yl)methyl)ethanamine], the EC50 was 0.167 µM in the assay with IL-6 (THP-1 cells), 1.08 µM in the assay with SW480 colon cancer cells, 0.65 µM in assay [1] and 0.553 µM in assay [2].

With `CC(C)(C)C(=O)Nc1cncc(-c2cc3c(-c4cc5c(N6CCCCC6)cccc5[nH]4)n[nH]c3cn2)c1` [Compound 176, N-(5-(3-(4-(Piperidin-1-yl)-1H-indol-2-yl)-1H-pyrazolo[3,4-c]pyridin-5-yl)pyridin-3-yl)pivalamide], the EC50 with IL-6 (THP-1 cells) came to 8.89 µM; in the assay with SW480 colon cancer cells, 7.14 µM; in assay [1], 0.7 µM; in assay [2] it was 3.04 µM.
